Test systems include COLO 205 colon; DU-145 prostate; HS 578T breast; KM12 colon; LOX IMVI melanoma; MDA-MB-231 breast; SN12C renal; SNB-75 CNS.
What all share (assay): NCI tumour cell line growth inhibition, 48 h

Several values for one entry are separate records, joined by “and”; a condition that tells them apart may be missing. Identical values can stand only once.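 Cells were grown in 96-well plates and exposed to each compound for 48 hours at five concentrations; endpoints were interpolated linearly between bracketing concentrations, or set to the highest concentration if not reached. GI50 is the concentration that inhibits growth by half. Definition used: TGI = concentration required for complete inhibition of growth.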

Consider `COC(=O)/C=C/c1cc(OC)c2c(c1)C(C(=O)OC)C(c1ccc(O)c(OC)c1)O2` (stereo not drawn), for which the GI50 with COLO 205 colon is 17 µM and 13.1 µM and 7.32 µM; in the experiment on HS 578T breast, 5.34 µM; with LOX IMVI melanoma it was 7.16 µM and 4.36 µM and 1.04 µM; in the experiment on SN12C renal it was 13.9 µM and 9.44 µM and 4.63 µM; with SNB-75 CNS, 0.91 µM. The TGI in the experiment with COLO 205 colon is 35.4 µM and 26.4 µM and 25.8 µM; in the experiment with DU-145 prostate, > 100 µM and 35.7 µM; with HS 578T breast it was more than 88.1 µM; in the experiment on KM12 colon, > 88.2 µM and 20.9 µM and 15.7 µM; in the experiment on LOX IMVI melanoma, > 100 µM and 22.3 µM and 25.3 µM; with MDA-MB-231 breast, > 25.8 µM and 18.8 µM and 42.1 µM. Further, the TGI with SN12C renal is more than 100 µM; with SNB-75 CNS, 4.36 µM and 6.67 µM and 15.2 µM.

As to `O=C1CN2CCN(CC2)CC(=O)Nc2ccc(cc2)S(=O)(=O)c2ccc(cc2)NC(=O)CN2CCN(CC2)CC(=O)Nc2ccc(cc2)S(=O)(=O)c2ccc(cc2)N1`, the TGI in the experiment on COLO 205 colon is more than 100 µM; in the experiment on DU-145 prostate, more than 100 µM; with HS 578T breast, more than 100 µM; in the experiment with KM12 colon, more than 100 µM; in the experiment on LOX IMVI melanoma, more than 100 µM; with MDA-MB-231 breast, 43.1 µM. Also, the TGI in the experiment with SN12C renal and in the experiment on SNB-75 CNS was more than 100 µM throughout.

As for `COc1ccc(/C=C/C(=O)N[C@@H]2C(=O)N3[C@@H]2SC(C)(C)[C@@H]3C(=O)O)cc1OC`, the TGI with COLO 205 colon, in the experiment with DU-145 prostate, in the experiment with HS 578T breast, with KM12 colon, in the experiment with LOX IMVI melanoma and in the experiment with MDA-MB-231 breast was more than 100 µM in each case. Moreover, the TGI in the experiment on SN12C renal and with SNB-75 CNS was more than 100 µM in each case.

As for `O=c1oc2ccc([N+](=O)[O-])cc2cc1-c1csc(-c2ccccc2)n1`, the TGI in the experiment on COLO 205 colon, in the experiment on DU-145 prostate, with HS 578T breast, in the experiment on KM12 colon, in the experiment on LOX IMVI melanoma and with MDA-MB-231 breast was more than 100 µM each time. The TGI in the experiment with SN12C renal and with SNB-75 CNS was more than 100 µM each time.

For `CCOc1ccnc2c(OC)c(C)c3nc4ccccc4nc3c12`, the TGI in the experiment on COLO 205 colon, with DU-145 prostate, in the experiment on HS 578T breast, in the experiment on KM12 colon, in the experiment with LOX IMVI melanoma and with MDA-MB-231 breast was more than 100 µM in each case. For the same molecule, the TGI in the experiment on SN12C renal and with SNB-75 CNS was more than 100 µM throughout.

As for `O=C1CCCC1C(O)(C(F)(F)Cl)C(F)(F)Cl` (stereo not drawn), the TGI in the experiment with COLO 205 colon, in the experiment on DU-145 prostate, with HS 578T breast, with KM12 colon, in the experiment with LOX IMVI melanoma and in the experiment with MDA-MB-231 breast was more than 10 µM throughout. In addition, the TGI in the experiment with SN12C renal and in the experiment with SNB-75 CNS was more than 10 µM throughout.

As to `O=C1C=C(NCCc2ccc(O)cc2)C(=O)C=C1NCCc1ccc(O)cc1`, the TGI in the experiment on COLO 205 colon, in the experiment on DU-145 prostate, with HS 578T breast, in the experiment on KM12 colon, with LOX IMVI melanoma and in the experiment with MDA-MB-231 breast was more than 100 µM in each case. Further, the TGI was more than 100 µM with SN12C renal and 47.5 µM in the experiment with SNB-75 CNS.

Consider `CSc1c(C#N)c(=O)n(N)c2n[nH]c(C)c12`, for which the TGI in the experiment with COLO 205 colon, in the experiment with DU-145 prostate, in the experiment on HS 578T breast, in the experiment on KM12 colon, in the experiment with LOX IMVI melanoma and in the experiment on MDA-MB-231 breast was more than 100 µM each time. The TGI in the experiment on SN12C renal and with SNB-75 CNS was more than 100 µM in each case.

As for `CN(C)C=Nc1cccc2c1NSN2`, the TGI with COLO 205 colon, with DU-145 prostate, in the experiment with HS 578T breast, with KM12 colon, in the experiment with LOX IMVI melanoma and in the experiment with MDA-MB-231 breast was more than 100 µM in each case. The TGI in the experiment with SN12C renal and in the experiment with SNB-75 CNS was more than 100 µM each time.

In the case of `COc1ccc(C(CC(=O)c2ccc(O)cc2)C(C(=O)c2ccc(O)cc2)C(c2ccc(OC)cc2)C2C(=O)NC(=S)NC2=O)cc1` (stereo not drawn), the TGI was determined as 45.1 µM in the experiment with COLO 205 colon; 33.8 µM in the experiment with DU-145 prostate; 67.8 µM with HS 578T breast; 31.9 µM in the experiment with KM12 colon; 38 µM in the experiment on LOX IMVI melanoma; 55.9 µM in the experiment with MDA-MB-231 breast. The TGI worked out at 57 µM in the experiment with SN12C renal and 87.5 µM in the experiment on SNB-75 CNS.

Regarding `CC(=O)Oc1ccc(C2SCc3nc4ccccc4n32)cc1` (stereo not drawn), the TGI was 56.3 µM in the experiment on COLO 205 colon; more than 100 µM with DU-145 prostate; more than 100 µM with HS 578T breast; 81.8 µM in the experiment with KM12 colon; more than 100 µM with LOX IMVI melanoma; more than 100 µM in the experiment on MDA-MB-231 breast. In addition, the values for the TGI in the experiment with SN12C renal and in the experiment with SNB-75 CNS were more than 100 µM and 77.2 µM, respectively.

Take `COc1ccc(/C=C2\NC(=S)N(CN3CCOCC3)C2=O)cc1`: the TGI in the experiment with COLO 205 colon, in the experiment on DU-145 prostate, with HS 578T breast, in the experiment on KM12 colon, with LOX IMVI melanoma and with MDA-MB-231 breast was more than 100 µM throughout. Further, the TGI in the experiment with SN12C renal and in the experiment on SNB-75 CNS was more than 100 µM each time.

Regarding `COc1ccc([C@H]2C=C(c3cc(F)c(Cl)cc3Cl)N=c3s/c(=C\c4ccc(-c5ccc(Cl)cc5Cl)o4)c(=O)n32)cc1`, the TGI in the experiment with COLO 205 colon is more than 100 µM; with DU-145 prostate, more than 100 µM; in the experiment with HS 578T breast it was more than 100 µM; in the experiment on KM12 colon, more than 100 µM; with LOX IMVI melanoma, more than 100 µM; in the experiment on MDA-MB-231 breast, 70.2 µM. For the same molecule, the TGI in the experiment on SN12C renal and in the experiment with SNB-75 CNS was more than 100 µM throughout.

With `C=CCOC1=C(OC(C)=O)C(C2COC(C)(C)O2)OC1=O` (stereo not drawn), the TGI in the experiment on COLO 205 colon was 36.9 µM; in the experiment with DU-145 prostate it was more than 100 µM; with HS 578T breast, more than 100 µM; in the experiment on KM12 colon, 44.3 µM; in the experiment on LOX IMVI melanoma, 24 µM; with MDA-MB-231 breast it was 34.5 µM. Moreover, the TGI with SN12C renal is 70.8 µM; in the experiment on SNB-75 CNS it was more than 100 µM.

Regarding `O=[N+]([O-])c1ccc(N/N=C\c2ccc(O)cc2O)nc1`, the GI50 in the experiment with COLO 205 colon was 5.56 µM; in the experiment with DU-145 prostate, 1.77 µM; with HS 578T breast it was 38.3 µM; in the experiment with KM12 colon, 1.91 µM; in the experiment with LOX IMVI melanoma, 0.754 µM; with MDA-MB-231 breast, 2.1 µM. The GI50 in the experiment on SN12C renal was 3.12 µM; in the experiment on SNB-75 CNS, 9.77 µM. Also, the TGI in the experiment on COLO 205 colon, with DU-145 prostate, with HS 578T breast, with KM12 colon, in the experiment on LOX IMVI melanoma and in the experiment with MDA-MB-231 breast was more than 100 µM in each case. For the same molecule, the TGI in the experiment with SN12C renal and with SNB-75 CNS was more than 100 µM each time.

The values above are taken from PubChem BioAssay (NCI).
